This assay concerns the target TrkA (Homo sapiens (Human), UniProt P04629). The experiment in a line: TrkA Omnia Assay. Format: biochemical. The following applies: averaged IC50; 20 nM enzyme, 500 μM ATP, 10 μM peptide substrate. The procedure, abridged:
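Recombinant TrkA (20 nM) preincubated 10 min at ambient temperature with compound, then Omnia Tyr Peptide #4 (10 μM) and ATP (500 μM) added in 25 mM MOPS pH 7.5, 5 mM MgCl2, 0.005% Triton X-100. Fluorescence (ex 360/em 485 nm) followed continuously for 70 min; IC50 from initial rates by 4- or 5-parameter logistic fit.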

Counter-ions that a name gives are not always drawn. Where only a bound is given, the exact number is not on record here.

Sequence of TrkA (P04629 33-796): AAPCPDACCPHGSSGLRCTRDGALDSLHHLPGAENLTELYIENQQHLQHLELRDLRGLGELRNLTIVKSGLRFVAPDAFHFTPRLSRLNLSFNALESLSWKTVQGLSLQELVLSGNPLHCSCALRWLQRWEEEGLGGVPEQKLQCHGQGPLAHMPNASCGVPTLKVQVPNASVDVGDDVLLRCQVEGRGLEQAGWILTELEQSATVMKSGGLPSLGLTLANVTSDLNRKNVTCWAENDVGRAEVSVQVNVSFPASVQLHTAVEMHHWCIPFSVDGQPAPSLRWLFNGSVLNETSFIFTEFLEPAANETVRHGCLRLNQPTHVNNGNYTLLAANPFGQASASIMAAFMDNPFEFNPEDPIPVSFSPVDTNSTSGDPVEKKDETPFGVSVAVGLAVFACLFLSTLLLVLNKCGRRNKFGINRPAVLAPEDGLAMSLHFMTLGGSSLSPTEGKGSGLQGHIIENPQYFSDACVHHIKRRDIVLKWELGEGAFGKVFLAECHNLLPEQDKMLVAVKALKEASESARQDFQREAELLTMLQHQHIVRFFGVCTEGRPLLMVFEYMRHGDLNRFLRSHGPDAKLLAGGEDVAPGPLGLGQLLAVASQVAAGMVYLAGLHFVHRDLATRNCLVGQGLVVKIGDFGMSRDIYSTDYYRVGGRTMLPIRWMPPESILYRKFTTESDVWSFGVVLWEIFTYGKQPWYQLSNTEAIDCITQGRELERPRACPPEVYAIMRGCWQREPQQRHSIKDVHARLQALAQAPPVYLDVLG

The compound `COCCN1C[C@@H](NC(=O)Nc2cc(C3CCNCC3)nn2-c2ccccc2)[C@H](c2ccc(F)c(F)c2)C1` [Example 580, 1-((3S,4R)-4-(3,4-difluorophenyvl)-1-(2-methoxyethyl)pyrrolidin-3-yl)-3-(1-phenyl-3-(piperidin-4-yl)-1H-pyrazol-5-yl)urea dihydrochloride] came in with an IC50 of 100 to 1000 nM.
In turn, `COCCN1C[C@@H](NC(=O)Nc2c(C)c(C#N)nn2-c2ccccc2)[C@H](c2ccc(F)c(F)c2)C1` [Example 349, 1-(3-cyano-4-methyl-1-phenyl-1H-pyrazol-5-yl)-3-((3S,4R)-4-(3,4-difluorophenyl)-1-(2-methoxyethyl)pyrrolidin-3-yl)urea] gave an IC50 below 100 nM.
In turn, `COCCN1C[C@@H](NC(=O)Nc2cc(-c3ccc(CO)cc3)nn2C)[C@H](c2ccc(F)c(F)c2)C1` [Example 165, 1-((3S,4R)-4-(3,4-difluorophenyl)-1-(2-methoxyethyl)pyrrolidin-3-yl)-3-(3-(4-(hydroxymethyl)phenyl)-1-methyl-1H-pyrazol-5-yl)urea] showed an IC50 below 100 nM.
With `COCCN1C[C@@H](NC(=O)Nc2c3c(nn2-c2ccccc2)CS(=O)(=O)C3)[C@H](c2ccc(F)c(F)c2)C1` [Example 171, 1-((3S,4R)-4-(3,4-difluorophenyl)-1-(2-methoxyethyl)pyrrolidin-3-yl)-3-(5,5-dioxido-2-phenyl-4,6-dihydro-2H-thieno[3,4-c]pyrazol-3-yl)urea], the 50% inhibitory concentration (IC50) is below 100 nM.
On to `COCCN1C[C@@H](NC(=O)Nc2cc(-c3ccccc3OC)nn2C)[C@H](c2ccc(F)c(F)c2)C1` [Example 106, 1-((3S,4R)-4-(3,4-difluorophenyl)-1-(2-methoxyethyl)pyrrolidin-3-yl)-3-(3-(2-methoxy-phenyl)-1-methyl-1H-pyrazol-5-yl)urea], for which the IC50 was in the range of 100 to 1000 nM.
With `COCCCc1nn(-c2ccccc2)c(NC(=O)N[C@@H]2CN(c3cn[nH]c3)C[C@H]2c2ccc(F)c(F)c2)c1C` [Example 225, 1-((3S,4R)-4-(3,4-difluorophenyl)-1-(1H-pyrazol-4-yl)pyrrolidin-3-yl)-3-(3-(3-methoxypropyl)-4-methyl-1-phenyl-1H-pyrazol-5-yl)urea], the IC50 was below 100 nM.
For the compound `COCCN1C[C@@H](NC(=O)Nc2c(Br)c(-c3c(C)noc3C)nn2-c2ccccc2)[C@H](c2ccc(F)c(F)c2)C1` [Example 577, 1-(4-bromo-3-(3,5-dimethylisoxazol-4-yl)-1-phenyl-1H-pyrazol-5-yl)-3-((3S,4R)-4-(3,4-difluorophenyl)-1-(2-methoxyethyl)pyrrolidin-3-yl)urea], the IC50 is below 100 nM.
Regarding `COCCN1C[C@@H](NC(=O)Nc2c(C)c(-c3cnn(C)c3)nn2-c2cncc(F)c2)[C@H](c2ccc(F)c(F)c2)C1` [Example 495, 1-((3S,4R)-4-(3,4-difluorophenyl)-1-(2-methoxyethyl)pyrrolidin-3-yl)-3-(1-(5-fluoropyridin-3-yl)-1′,4-dimethyl-1H, 1′H-[3,4′-bipyrazol]-5-yl)urea], the IC50 was below 100 nM.
Regarding `COCCN1C[C@@H](NC(=O)Nc2c(Br)c(COC3CCNCC3)nn2-c2ccccc2)[C@H](c2ccc(F)c(F)c2)C1` [Example 591, 1-(4-bromo-1-phenyl-3-((piperidin-4-yloxy)methyl)-1H-pyrazol-5-yl)-3-((3S,4R)-4-(3,4-difluorophenyl)-1-(2-methoxyethyl)pyrrolidin-3-yl)urea dihydrochloride], the IC50 was below 100 nM.
The compound `CCOc1nn(-c2ccccc2)c(NC(=O)N[C@@H]2CN(CCOC)C[C@H]2c2ccc(F)c(F)c2)c1NC(=O)C(F)(F)F` [Example 548, N-(5-(3-((3S,4R)-4-(3,4-difluorophenyl)-1-(2-methoxyethyl)pyrrolidin-3-yl)ureido)-3-ethoxy-1-phenyl-1H-pyrazol-4-yl)-2,2,2-trifluoroacetamide] returned an IC50 of 100 to 1000 nM.
The compound `COCCN1C[C@@H](NC(=O)Nc2cc(C(C)(C)C)nn2-c2cccc(F)c2)[C@H](c2ccccc2)C1` (relative stereo) [Example 17, 1-(3-tert-butyl-1-(3-fluorophenyl)-1H-pyrazol-5-yl)-3-(trans-1-(2-methoxyethyl)-4-phenylpyrrolidin-3-yl)urea] returned an IC50 of 100 to 1000 nM.
Consider `COCCN1C[C@@H](NC(=O)Nc2cc(-c3ccc(F)cc3)nn2C)[C@H](c2cccc(F)c2)C1` [Example 112, 1-((3S,4R)-4-(3-fluoro-phenyl)-1-(2-methoxy-ethyl)pyrrolidin-3-yl)-3-(3-(4-fluorophenyl)-1-methyl-1H-pyrazol-5-yl)urea], for which the IC50 was below 100 nM.
With `COCCN1C[C@@H](NC(=O)Nc2cc(COC)nn2-c2ccccc2)[C@H](c2ccccc2)C1` [Example 100, 1-((3S,4R)-1-(2-methoxy-ethyl)-4-phenylpyrrolidin-3-yl)-3-(3-(methoxy-methyl)-1-phenyl-1H-pyrazol-5-yl)urea], the IC50 fell in the range of 100 to 1000 nM.
For `COCCN1C[C@@H](NC(=O)Nc2c(-c3ccccc3)c(C)nn2C)[C@H](c2ccccc2)C1` (relative stereo) [Example 28, 1-(1,3-dimethyl-4-phenyl-1H-pyrazol-5-yl)-3-(trans-1-(2-methoxyethyl)-4-phenylpyrrolidin-3-yl)urea] the value was 100 to 1000 nM.
In the case of `COCCN1C[C@@H](NC(=O)Nc2cc(-c3ccccc3)nn2C)[C@H](c2ccc(F)cc2F)C1` [Example 111, 1-((3S,4R)-4-(2,4-difluorophenyl)-1-(2-methoxyethyl)pyrrolidin-3-yl)-3-(1-methyl-3-phenyl-1H-pyrazol-5-yl)urea] it was below 100 nM.
For the compound `COCCN1C[C@@H](NC(=O)Nc2c(-c3ccccc3)nn(C(C)C)c2C)[C@H](c2cc(F)cc(F)c2)C1` [Example 642, 1-((3S,4R)-4-(3,5-difluorophenyl)-1-(2-methoxyethyl)pyrrolidin-3-yl)-3-(1-isopropyl-5-methyl-3-phenyl-1H-pyrazol-4-yl)urea], the IC50 lay in the range of 100 to 1000 nM.
As for `COCCN1C[C@@H](NC(=O)Nc2c(C)c(-c3ccn(C)c(=O)c3)nn2-c2ccccc2)[C@H](c2ccc(F)c(Cl)c2)C1` (relative stereo) [Example 304, 1-(trans-4-(3-chloro-4-fluorophenyl)-1-(2-methoxyethyl)pyrrolidin-3-yl)-3-(4-methyl-3-(1-methyl-2-oxo-1,2-dihydropyridin-4-yl)-1-phenyl-1H-pyrazol-5-yl)urea], the concentration for half-maximal inhibition (IC50) was below 100 nM.
In turn, `COCCN1C[C@@H](NC(=O)Nc2c3c(nn2-c2ccccc2)CCC3)[C@H](c2nccs2)C1` (stereo in doubt) [Example 49, 1-(1-(2-methoxyethyl)-4-(thiazol-2-yl)pyrrolidin-3-yl)-3-(2-phenyl-2,4,5,6-tetrahydrocyclopenta[c]pyrazol-3-yl)urea] gave an IC50 of 1000 to 10000 nM.
In the case of `COCCN1C[C@@H](NC(=O)Nc2c(Br)c(COC3CCN(C(C)=O)CC3)nn2-c2ccccc2)[C@H](c2ccc(F)c(F)c2)C1` [Example 600, 1-(3-((1-acetylpiperidin-4-yloxy)methyl)-4-bromo-1-phenyl-1H-pyrazol-5-yl)-3-((3S,4R)-4-(3,4-difluorophenyl)-1-(2-methoxyethyl)pyrrolidin-3-yl)urea] it was below 100 nM; in that of `COCCN1C[C@@H](NC(=O)Nc2c(C)c(-c3ccccc3)nn2-c2ccccc2)[C@H](c2ccc(F)cc2)C1` [Example 331, 1-((3S,4R)-4-(4-fluorophenyl)-1-(2-methoxyethyl)pyrrolidin-3-yl)-3-(4-methyl-1,3-diphenyl-1H-pyrazol-5-yl)urea], below 100 nM.

The IC50 is the concentration that inhibits the measured activity by half. Higher therefore signals lower potency.

For the origin of these results see US10323022B2, “Pyrrolidinyl urea, pyrrolidinyl thiourea and pyrrolidinyl guanidine compounds as TrkA kinase inhibitors” (Array BioPharma Inc., priority 2011, dated 2019).
